How the values were obtained:
[1] = system: CD44; experiment: Immunofluorescence of CD44ICD and α-SMA in human pHSCs; format: cell-based; settings: 40 ng/ml, immunofluorescence (FIG. 3B)
Procedure: The cleavage of CD44 and the expression of the activation marker of pHSCs by peptide YJ treatment were confirmed through immunofluorescence. At this time, human pHSCs treated with PBS were used as a control group.
Specifically, human pHSCs (5×10^4 cells/ml) were seeded on coverslips and then cultured overnight. The cells were treated with peptide YJ at a concentration of 40 ng/ml and further cultured for 6, 12, and 24 hours, respectively. The cells were fixed and permeabilized by treating each cell with 4% paraformaldehyde and 0.01% Triton X-100. To inhibit non-specific binding of antibodies, blocking (Dako, X9090) was performed, and then the primary antibodies were treated and reacted overnight at 4° C. At this time, the primary antibodies used were anti-CD44ICD antibody (Cosmo Bio, KAL-KO601) and α-SMA (Sigma-Aldrich, A5228). Thereafter, the cells were washed with TBS, treated with a secondary antibody, and reacted at room temperature for 30 minutes. The secondary antibody used were Alexa Fluor 488-conjugated chicken anti-mouse IgG antibody (Invitrogen, A21200) or Alexa Fluor 568-conjugated goat anti-rabbit IgG antibody (Invitrogen, A10042). The cells were washed with TBS, and then treated with 4′,6-diamidino-2-phenylinole (DAPI, VECTASHIELD, H-1200-10) to perform nuclear staining. Finally, the coverslip was fixed on a slide glass using a mounting solution and then observed with a confocal microscope DMi8-S (Leica Microsystems) or CLSM21 (Carl Zeiss Inc.).

[2] = system: alcohol-related liver disease mouse model; experiment: Fibrosis markers and collagen accumulation in liver tissue of mouse model; format: in vivo, C57BL/6 male mice; settings: 3.3 μg/kg i.p. every other day for three weeks, EtOH diet group, vs vehicle
From the text: (§1) To prepare alcohol-related liver disease mice, 8-week-old C57BL/6 male mice were fed with a Lieber DeCarli liquid diet (Dyets, 710260) containing 5% EtOH for 9 weeks, and then injected intraperitoneally with a vehicle (PBS) every other day along with feeding liquid diet for additional 3 weeks. As a control group for the EtOH diet, mice fed with a pair Lieber DeCarli liquid diet (Dyets, 710027) having the same total calories as the EtOH diet were used (FIG. 4A).
In most chronic liver diseases, severe inflammatory responses were accompanied by fibrosis. Accordingly, the degree of fibrosis in the liver tissue of the alcohol-related liver disease mouse model established by the method of Example 5.1 in the present disclosure was confirmed through the expression of fibrosis markers using RT-qPCR and Western blot. In addition, the accumulation of collagen in the liver tissue and the expression of α-SMA were confirmed. In addition, the concentration of collagen in the liver tissue was confirmed through Sirius red staining, and the expression of α-SMA was confirmed through immunohistochemical staining. At this time, RT-qPCR and Western blot were performed in the same manner as in Example 2, and immunohistochemical staining (IHC) was performed in the same manner as in Example 5.2.3. In IHC, an anti-α-SMA antibody was used as the primary antibody.
After deparaffinization and hydration of the liver tissue section slides prepared in the same manner as in Example 5.2.3, the section slides were treated with 0.1% Sirius red F3B (Sigma-Aldrich) and 0.1% Fast Green (Sigma-Aldrich) solutions containing saturated picric acid (Sigma-Aldrich) and reacted for 20 minutes. After the staining reaction was completed, the section slides were dehydrated, mounted, and observed under a microscope. […] In addition, it was confirmed that the expression of α-SMA in the liver tissue in the EtOH diet group increased compared to the control group (pair) (FIG. 5D).
(§2) The alcohol-related liver disease mouse model established by the method of Example 5.1 was administered vehicle (PBS) or peptide YJ (3.3 μg/kg) intraperitoneally every other day for three weeks, and then blood was collected and liver tissue was extracted to confirm the liver disease treatment effect of peptide YJ.
The degree of fibrosis in the liver tissue extracted from the experimental mice of Example 5.3 was confirmed in the same manner as in Example 5.2.4.

[3] = system: alcohol-related liver disease mouse model; experiment: Inflammatory response (CD68, F4/80 immunohistochemistry) and alcohol metabolism/apoptosis markers (Western blot) in liver tissue of mouse model; format: in vivo, C57BL/6 male mice; settings: 3.3 μg/kg i.p. every other day for three weeks, vs vehicle
From the text: as §1
Specifically, the liver tissue extracted from the mouse was fixed by treating 10% neutral buffered formalin, and then embedded using paraffin. The liver tissue paraffin block was cut into 4 μm-thick sections to produce tissue section slides. After deparaffinization and hydration processes of the tissue section slides, 3% hydrogen peroxide was treated to block endogenous peroxidase. Then, the section slides were treated with 10 mM sodium citrate buffer (pH 6.0) and heated for 10 minutes or treated with 0.2% pepsin to induce antigen retrieval. To inhibit non-specific binding of antibodies, blocking (Dako, X9090) was performed, and then the primary antibodies were treated and reacted overnight at 4° C. At this time, the primary antibodies used were anti-CD68 antibody (Abcam, ab125212) and anti-F4/80 antibody (Abcam, ab6640). The section slides were washed with TBST and then treated with secondary antibodies and reacted. The secondary antibodies used were EnVision+ Single Reagents (HRP, Rabbit) (Dako, K4003) and Goat anti-rat IgG-heavy and light chain antibodies (HRP conjugated) (BETHYL, A110-105P). Thereafter, the section slides were washed with TBST and treated with 3,3′-diaminobenzidine (DAB) (Dako, K3466) to develop the color. After the color development, the tissues of the section slides were dehydrated, mounted, fixed, and then observed under a microscope.
as §2
The degree of inflammatory response in the liver tissue extracted from the experimental mice of Example 5.3 was confirmed in the same manner as in Example 5.3.2.
In addition, the expression of alcohol metabolism markers and apoptosis marker proteins was confirmed through Western blot. Western blot was performed in the same manner as in Example 2. At this time, the primary antibodies used were anti-CYP2E1 antibody ([…], ab125212), anti-4HNE antibody (Abcam, ab46545), anti-cleaved caspase-3 antibody (Cell Signaling Technology, 9661s), anti-caspase-3 antibody (Cell Signaling Technology, 9662s), and anti-GADPH antibody.

[4] = system: CD44; experiment: CD44 and CD44ICD expression in liver tissue of mouse model (IHC, Western blot); format: in vivo, C57BL/6 male mice; settings: 3.3 μg/kg i.p. every other day for three weeks
From the text: as §1, §2
The expression of CD44 and CD44ICD in liver tissues extracted from the experimental mice of Example 5.3, or nuclear proteins or whole proteins (whole lysate) of liver tissues, was confirmed through immunohistochemical staining and Western blot. The immunohistochemical staining was performed using anti-CD44 antibody and anti-CD44ICD antibody by the method of Example 5.2.3, and Western blot was performed by the method of Examples 2 and 4.

[5] = RT-qPCR, Western blot (FIGS. 7A, 7B)
[6] = EtOH diet group, Western blot (FIG. 6F)
[7] = EtOH diet group, vs vehicle, Western blot (FIG. 8B)

peptide YJ: TSG-6 fragment: core domain RSGKYKLTYAEAKA plus C-terminal extension VCEFEGGHLATYKQLEAARKIGFHVCAAGWMAK (SEQ ID NO: 9); TSG-6 mimetic (RSGKYKLTYAEAKAVCEFEGGHLATYKQLEAARKIGFHVCAAGWMAK; peptide 4)
expression of CD44ICD in the nucleus ([1]; 12 hours): decreased
expression of α-SMA ([1]; 12 hours): decreased
expression of CD44ICD in the nucleus ([1]; 24 hours): no expression of CD44ICD in the nucleus was observed
expression of α-SMA ([1]; 24 hours): significantly decreased
mRNA and protein expression of collagen1α1 in the liver tissue [2, 5]: significantly reduced
mRNA and protein expression of vimentin in the liver tissue [2, 5]: significantly reduced
mRNA and protein expression of α-SMA in the liver tissue [2, 5]: significantly reduced
collagen accumulation in the liver tissue ([2]; hydroxyproline assay, Sirius red staining, IHC (α-SMA) (FIGS. 7C, 7D)): significantly reduced
expression of CD68 in liver tissue ([3]; EtOH diet group, IHC (FIG. 6E)): significantly reduced
expression of F4/80 in liver tissue ([3]; EtOH diet group, IHC (FIG. 6E)): significantly reduced
expression of 4HNE in liver [3, 6]: did not show a significant difference
expression of CYP2E1 in liver [3, 6]: did not show a significant difference
expression of cleaved caspase-3 (apoptosis marker) in liver ([3]; Western blot (FIG. 6F)): decreased
expression of CD44ICD in whole lysate of liver tissue [4, 7]: reduced
expression of CD44 in whole lysate of liver tissue [4, 7]: reduced
expression of CD44ICD in nuclear protein of liver tissue ([4]; EtOH diet group, vs vehicle, Western blot (FIG. 8C)): significantly reduced
expression of CD44 in liver tissue ([4]; immunohistochemical staining (FIG. 8A)): decreased

Reference: patent US20250263457A1, “Pharmaceutical Composition for Preventing and Treating Liver Disease Comprising Novel Peptide” (Pusan National University Industry-University Cooperation …, priority 2024, published 2025)
